For assay [1], the target named is T1, DDR1 (Homo sapiens, UniProt Q08345). Put plainly: DDR1 binding assay (LanthaScreen Europium Kinase Binding assay). Details: purchased Carna Biosciences. The note with it: binding assay, 5 nM DDR1, 20 nM Kinase Tracer 178; Ki from IC50 by Cheng-Prusoff; read-out: Ki DDR1. The gist of the method: (§1)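 TR-FRET tracer-displacement format: 665/615 nm emission ratio (340 nm excitation) gave IC50 by 4-parameter fit, then Ki via Cheng-Prusoff. Each kinase at 5 nM with 2 nM Eu-anti-GST antibody and Tracer 178 (DDR1 20 nM, DDR2 10 nM), 1 h, room temperature, HEPES pH 7.5 buffer.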
T1 sequence (Q08345 19-913): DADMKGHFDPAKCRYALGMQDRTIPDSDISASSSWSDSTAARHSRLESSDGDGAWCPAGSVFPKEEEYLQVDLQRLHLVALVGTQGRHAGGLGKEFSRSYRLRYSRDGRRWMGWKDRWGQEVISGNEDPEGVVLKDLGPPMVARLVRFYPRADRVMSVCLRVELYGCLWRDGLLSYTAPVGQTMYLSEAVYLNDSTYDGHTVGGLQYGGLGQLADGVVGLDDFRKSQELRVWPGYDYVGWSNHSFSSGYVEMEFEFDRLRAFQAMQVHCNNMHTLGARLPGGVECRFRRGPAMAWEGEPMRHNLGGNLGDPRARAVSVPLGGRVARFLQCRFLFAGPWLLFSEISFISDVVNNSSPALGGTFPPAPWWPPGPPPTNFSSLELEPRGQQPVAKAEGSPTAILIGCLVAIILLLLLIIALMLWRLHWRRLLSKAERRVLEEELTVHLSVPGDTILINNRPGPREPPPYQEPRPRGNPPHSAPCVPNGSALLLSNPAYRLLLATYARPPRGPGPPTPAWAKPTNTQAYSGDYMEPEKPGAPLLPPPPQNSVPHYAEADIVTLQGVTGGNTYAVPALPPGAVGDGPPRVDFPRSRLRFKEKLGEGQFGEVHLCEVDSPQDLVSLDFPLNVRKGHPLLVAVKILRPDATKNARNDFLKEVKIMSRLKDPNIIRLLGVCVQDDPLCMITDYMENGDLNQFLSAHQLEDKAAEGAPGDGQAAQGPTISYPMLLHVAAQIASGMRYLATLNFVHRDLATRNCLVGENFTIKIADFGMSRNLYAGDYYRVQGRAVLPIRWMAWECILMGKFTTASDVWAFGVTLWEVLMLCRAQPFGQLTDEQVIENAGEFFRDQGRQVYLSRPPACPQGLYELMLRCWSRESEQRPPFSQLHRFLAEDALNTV
A general note: Time-resolved FRET reads energy transfer from a long-lived donor to a nearby acceptor.

Assay [2] deals with T2, DDR2 (Homo sapiens, UniProt Q16832).
T2 sequence (Q16832 22-855): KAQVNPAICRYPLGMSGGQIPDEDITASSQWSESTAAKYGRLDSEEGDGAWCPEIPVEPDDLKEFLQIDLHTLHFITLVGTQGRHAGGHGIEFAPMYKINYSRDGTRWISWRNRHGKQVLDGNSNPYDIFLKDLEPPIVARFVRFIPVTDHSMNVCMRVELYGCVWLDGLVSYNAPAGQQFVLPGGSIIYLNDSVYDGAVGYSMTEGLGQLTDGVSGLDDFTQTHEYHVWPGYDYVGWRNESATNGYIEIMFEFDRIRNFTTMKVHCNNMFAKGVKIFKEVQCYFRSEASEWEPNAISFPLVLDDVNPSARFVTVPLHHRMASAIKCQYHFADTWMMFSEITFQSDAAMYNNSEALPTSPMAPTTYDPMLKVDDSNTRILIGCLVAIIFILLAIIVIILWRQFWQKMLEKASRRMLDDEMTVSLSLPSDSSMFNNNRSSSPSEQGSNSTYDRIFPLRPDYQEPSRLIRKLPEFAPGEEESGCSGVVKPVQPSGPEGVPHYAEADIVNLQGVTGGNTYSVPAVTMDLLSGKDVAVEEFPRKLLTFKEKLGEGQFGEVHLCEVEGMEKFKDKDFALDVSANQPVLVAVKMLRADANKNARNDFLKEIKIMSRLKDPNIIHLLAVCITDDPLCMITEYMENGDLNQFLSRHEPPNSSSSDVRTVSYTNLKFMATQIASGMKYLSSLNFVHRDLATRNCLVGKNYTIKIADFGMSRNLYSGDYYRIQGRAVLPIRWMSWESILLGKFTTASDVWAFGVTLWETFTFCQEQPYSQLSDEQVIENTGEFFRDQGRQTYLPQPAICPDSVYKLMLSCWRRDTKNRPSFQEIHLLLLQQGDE
Briefly: DDR2 binding assay (LanthaScreen Europium Kinase Binding assay). The note with it: binding assay, 5 nM DDR2, 10 nM Kinase Tracer 178; Ki from IC50 by Cheng-Prusoff; read-out: Ki DDR2. On the set-up: purchased Life Technologies. The gist of the method: as §1

Assay [3] concerns the target T2, DDR2. Put plainly: DDR2 cell based assay (phospho-ELISA in HEK293T-DDR2 recombinant cells). On the set-up: expressed in transfected cells; host or cells: HEK293T-DDR2 recombinant cells. The note with it: bovine Type II Collagen 50 μg/ml. On the procedure: The inhibition of DDR2 phosphorylation by compounds was evaluated in HEK293T-DDR2 recombinant cells by phospho-ELISA assay. Briefly, HEK293T-DDR2 cells were seeded in poly-D-lysine-coated 24-well plates at a density of 250.000 cells/well and incubated for 1.5 hours at 37° C. and 5% CO2 in DMEM+10% FBS. After that, the medium was changed to serum-free DMEM and cells were incubated for 3 hours. Then. test compounds were added at different concentrations 30 minutes before stimulation with bovine Type II Collagen at 50 μg/ml for further 3 hours. For DDR2 phospho-ELISA assay (DuoSet IC Human Phospho-DDR2; R&D Systems), protein extracts were obtained by adding 60 μl/well of lysis buffer prepared according to the manufacturer's instructions. Protein concentration in the samples was determined by BCA assay and the levels of phospho-DDR2 were determined following R&D Systems indications. Raw data were normalized to maximal inhibition control (0% for normalization) and positive control (100% for normalization; cells treated with […] collagen II) and IC50 parameters were calculated in GraphPad Prism 8.0 software, using sigmoidal dose-response curve fitting with variable slope.
A general note: An ELISA detects its analyte on a solid surface through an enzyme-linked reagent.

The target of assay [4] is T1, DDR1. Briefly: DDR1 cell based assay (PathHunter U2OS DDR1 assay). Details: host or cells: U2OS-DDR1 (PathHunter). The settings on record: U2OS-DDR1 cells, bovine Type II Collagen 20 μg/ml. The procedure, abridged:
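Receptor activation measured by enzyme-fragment complementation luminescence in engineered U2OS cells. Compound added 30 min before overnight challenge with 20 μg/ml bovine collagen II; data scaled between vehicle and collagen-stimulated controls, IC50 derived by four-parameter variable-slope fitting.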

The Ki is a dissociation constant, usually derived from enzyme kinetics or from competition with a known ligand. The term IC50 denotes the concentration at which inhibition is half-maximal.

Some results are limits rather than exact numbers.

Turning to `Cc1cn(-c2cc(NC(=O)c3csc4c3CCN(C(=O)c3cnc5ccccn35)[C@@H]4C)cc(C(F)(F)F)c2)cn1` [Example 101, (R)-6-(imidazo[1,2-a]pyridine-3-carbonyl)-7-methyl-N-(3-(4-methyl-1H-imidazol-1-yl)-5-(trifluoromethyl)phenyl)-4,5,6,7-tetrahydrothieno[2,3-c]pyridine-3-carboxamide], the Ki on DDR1 [1] and on DDR2 [2] was below 25 nM in each case. Also, the IC50 at DDR2 [3] and on DDR1 [4] was below 25 nM each time.
Consider `O=C(Nc1cccc(C(F)(F)F)c1)c1csc2c1CCN(C(=O)c1cnn3ccncc13)C2` [Example 93, 6-(pyrazolo[1,5-a]pyrazine-3-carbonyl)-N-(3-(trifluoromethyl)phenyl)-4,5,6,7-tetrahydrothieno[2,3-c]pyridine-3-carboxamide], for which the Ki on DDR1 [1] and on DDR2 [2] was below 25 nM each time. Moreover, the IC50 at DDR2 [3] and at DDR1 [4] was below 25 nM in each case.
Take `CN1CCN(Cc2cc(NC(=O)c3csc4c3CCN(C(=O)c3cnc5ccccn35)C4)cc(C(F)(F)F)c2)CC1` [Example 1, 6-(imidazo[1,2-a]pyridine-3-carbonyl)-N-(3-((4-methylpiperazin-1-yl)methyl)-5-(trifluoromethyl)phenyl)-4,5,6,7-tetrahydrothieno[2,3-c]pyridine-3-carboxamide]: the inhibition constant Ki on DDR1 [1] and on DDR2 [2] was below 25 nM throughout. The IC50 on DDR2 [3] is below 25 nM; on DDR1 [4], 25 to 50 nM.
Regarding `Cc1cn(-c2cc(NC(=O)c3csc4c3CCN(C(=O)c3cnc5ccccn35)C4)cc(C(F)(F)F)c2)cn1` [Example 74, 6-(imidazo[1,2-a]pyridine-3-carbonyl)-N-(3-(4-methyl-1H-imidazol-1-yl)-5-(trifluoromethyl)phenyl)-4,5,6,7-tetrahydrothieno[2,3-c]pyridine-3-carboxamide], the Ki at DDR1 [1] and on DDR2 [2] was below 25 nM in each case. Further, the IC50 on DDR2 [3] and against DDR1 [4] was below 25 nM throughout.
Take `Cn1nc(C(C)(C)C)cc1NC(=O)c1csc2c1CCN(Cc1cnc3[nH]ccc3c1)C2` [Example 70, 6-((1H-pyrrolo[2,3-b]pyridin-5-yl)methyl)-N-(3-(tert-butyl)-1-methyl-1H-pyrazol-5-yl)-4,5,6,7-tetrahydrothieno[2,3-c]pyridine-3-carboxamide]: the Ki at DDR1 [1] and on DDR2 [2] was below 25 nM in each case. Also, the results for the half-maximal inhibitory concentration (IC50) at DDR2 [3] and against DDR1 [4] were 25 to 50 nM and below 25 nM, respectively.
As for `N#Cc1cc(NC(=O)c2csc3c2CCN(C(=O)c2cnn4ccncc24)C3)cc(C(F)(F)F)c1` [Example 184, N-(3-cyano-5-(trifluoromethyl)phenyl)-6-(pyrazolo[1,5-a]pyrazine-3-carbonyl)-4,5,6,7-tetrahydrothieno[2,3-c]pyridine-3-carboxamide], the Ki at DDR1 [1] and at DDR2 [2] was below 25 nM in each case. The results for the concentration for half-maximal inhibition (IC50) on DDR2 [3] and against DDR1 [4] were 25 to 50 nM and below 25 nM, respectively.
With `O=C(Nc1cccc(OC(F)(F)F)c1)c1csc2c1CCN(Cc1cnc3[nH]ccc3c1)C2` [Example 72, 6-((1H-pyrrolo[2,3-b]pyridin-5-yl)methyl)-N-(3-(trifluoromethoxy)phenyl)-4,5,6,7-tetrahydrothieno[2,3-c]pyridine-3-carboxamide], the Ki at DDR1 [1] and at DDR2 [2] was below 25 nM each time. Also, the IC50 at DDR2 [3] and against DDR1 [4] was below 25 nM throughout.
Consider `CC(C)(C)c1cc(NC(=O)c2csc3c2CCN(Cc2cnc4[nH]ncc4c2)C3)no1` [Example 134, 6-((1H-pyrazolo[3,4-b]pyridin-5-yl)methyl)-N-(5-(tert-butyl)isoxazol-3-yl)-4,5,6,7-tetrahydrothieno[2,3-c]pyridine-3-carboxamide], for which the Ki on DDR1 [1] and at DDR2 [2] was below 25 nM in each case. The IC50 on DDR2 [3] and at DDR1 [4] was below 25 nM each time.
Take `CN1CCN(c2ccc3ncc(C(=O)N4CCc5c(C(=O)Nc6cccc(C(F)(F)F)c6)csc5C4)n3c2)CC1` [Example 136, 6-(6-(4-methylpiperazin-1-yl)imidazo[1,2-a]pyridine-3-carbonyl)-N-(3-(trifluoromethyl)phenyl)-4,5,6,7-tetrahydrothieno[2,3-c]pyridine-3-carboxamide]: the Ki at DDR1 [1] and on DDR2 [2] was below 25 nM in each case. Besides, the IC50 on DDR2 [3] and on DDR1 [4] was below 25 nM throughout.
As for `O=C(Nc1cccc(C(F)(F)F)c1)c1csc2c1CCN(Cc1cnc3[nH]ncc3c1)C2` [Example 85, 6-((1H-pyrazolo[3,4-b]pyridin-5-yl)methyl)-N-(3-(trifluoromethyl)phenyl)-4,5,6,7-tetrahydrothieno[2,3-c]pyridine-3-carboxamide], the Ki on DDR1 [1] and at DDR2 [2] was below 25 nM throughout. Besides, the IC50 at DDR2 [3] and on DDR1 [4] was below 25 nM throughout.
Take `O=C(Nc1cc(OCCN2CCOCC2)cc(C(F)(F)F)c1)c1csc2c1CCN(C(=O)c1cnc3ccccn13)C2` [Example 24, 6-(imidazo[1,2-a]pyridine-3-carbonyl)-N-(3-(2-morpholinoethoxy)-5-(trifluoromethyl)phenyl)-4,5,6,7-tetrahydrothieno[2,3-c]pyridine-3-carboxamide]: the Ki on DDR1 [1] and on DDR2 [2] was below 25 nM each time. The IC50 on DDR2 [3] is 25 to 50 nM; against DDR1 [4], below 25 nM.
Consider `CC(C)(C)c1cc(NC(=O)c2csc3c2CCN(Cc2cnc4[nH]ncc4c2)C3)on1` [Example 133, 6-((1H-pyrazolo[3,4-b]pyridin-5-yl)methyl)-N-(3-(tert-butyl)isoxazol-5-yl)-4,5,6,7-tetrahydrothieno[2,3-c]pyridine-3-carboxamide], for which the inhibition constant Ki at DDR1 [1] and on DDR2 [2] was below 25 nM throughout. The IC50 at DDR2 [3] and on DDR1 [4] was below 25 nM in each case.
As to `O=C(Nc1cccc(C(F)(F)F)c1)c1csc2c1CCN(C(=O)c1cnc3ccccn13)C2` [Example 7, 6-(imidazo[1,2-a]pyridine-3-carbonyl)-N-(3-(trifluoromethyl)phenyl)-4,5,6,7-tetrahydrothieno[2,3-c]pyridine-3-carboxamide], the Ki on DDR1 [1] and on DDR2 [2] was below 25 nM in each case. Besides, the IC50 on DDR2 [3] and against DDR1 [4] was below 25 nM each time.
Take `O=C(Nc1cncc(C(F)(F)F)c1)c1csc2c1CCN(C(=O)c1cnn3ccncc13)C2` [Example 108, 6-(pyrazolo[1,5-a]pyrazine-3-carbonyl)-N-(5-(trifluoromethyl)pyridin-3-yl)-4,5,6,7-tetrahydrothieno[2,3-c]pyridine-3-carboxamide]: the Ki at DDR1 [1] and on DDR2 [2] was below 25 nM throughout. Moreover, the values for the 50% inhibitory concentration (IC50) at DDR2 [3] and against DDR1 [4] were 25 to 50 nM and below 25 nM, respectively.
